pIC50: −log10 of the molar value. Structures can show the parent of a compound that is named as a salt.
Experiments:
rabbit GSK-3β = rabbit GSK-3β (Oryctolagus cuniculus, UniProt G1T8E2); assay: GSK-3β-inhibitory activity (phosphorylation of CREB phosphopeptide, [γ-32P]ATP, scintillation counting); assay type: biochemical; conditions: rabbit GSK-3β (0.5 unit), 30° C. for 20 minutes, Table 1
Experimental: CREB phosphopeptide ([…]), rabbit GSK-3β (0.5 unit), ATP ([…]), [γ-^32P]ATP (12.3 kBq) and a test compound were reacted in a GSK-3β buffer solution (25 μL) (20 mmol/L Tris-HCl (pH 7.5), 10 mmol/L magnesium chloride, 5 mmol/L dithiothreitol) containing 1% dimethyl sulfoxide, at 30° C. for 20 minutes. The reaction product (10 μL) was adsorbed on a P81 ion-exchange paper, and the paper was washed with phosphoric acid (100 mmol/L) and measured for cpm on a scintillation counter.
CREB Phosphopeptide is Lys-Arg-Arg-Glu-Ile-Leu-Ser-Arg-Arg-Pro-Ser(P)-Tyr-Arg.

Chain of rabbit GSK-3β (G1T8E2 1-432): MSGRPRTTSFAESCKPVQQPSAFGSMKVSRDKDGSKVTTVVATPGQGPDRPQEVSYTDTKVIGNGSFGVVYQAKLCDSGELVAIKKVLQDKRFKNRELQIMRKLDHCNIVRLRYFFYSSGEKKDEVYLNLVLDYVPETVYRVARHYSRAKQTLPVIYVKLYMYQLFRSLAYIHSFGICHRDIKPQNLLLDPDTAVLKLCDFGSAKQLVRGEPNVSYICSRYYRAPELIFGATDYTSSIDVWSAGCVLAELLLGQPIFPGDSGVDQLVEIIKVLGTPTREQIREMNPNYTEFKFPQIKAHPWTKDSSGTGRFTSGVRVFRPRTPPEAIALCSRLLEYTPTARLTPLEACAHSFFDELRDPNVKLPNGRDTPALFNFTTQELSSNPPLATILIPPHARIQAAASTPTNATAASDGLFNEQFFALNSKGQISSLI

Row | Compound | pIC50 (rabbit GSK-3β) | melting point [°C]
1 | N#CC1=C(C2CCNCC2)Nc2n[nH]cc2C1c1cccc2nonc12 (stereo not drawn) [Example 1002, 4-(2,1,3-Benzoxadiazol-4-yl)-5-cyano-4,7-dihydro-6-(piperidin-4-yl)-2H-pyrazolo[3,4-b]pyridine] | 8.00 | 216
2 | N#CC1=C(C2CCCCC2=O)Nc2n[nH]cc2C1c1cccc2nonc12 (stereo not drawn) [Example 1058, 4-(2,1,3-Benzoxadiazol-4-yl)-5-cyano-4,7-dihydro-6-(2-oxocyclohexan-1-yl)-2H-pyrazolo[3,4-b]pyridine] | 8.74 | 
3 | CC(=O)CC1=C(C#N)C(c2cccc(C#N)c2Br)c2c[nH]nc2N1 (stereo not drawn) [Example 1063, 6-Acetylmethyl-4-(2-bromo-3-cyanophenyl)-5-cyano-4,7-dihydro-2H-pyrazolo[3,4-b]pyridine] | 8.52 | 230
4 | N#CC1=C([C@@H]2C[C@H]3CC[C@@H]2NC3)Nc2n[nH]cc2C1c1cccc(C#N)c1Br (stereo partly drawn) [Example 1146, 6-(exo-2-Azabicyclo[2,2,2]octan-6-yl)-4-(2-bromo-3-cyanophenyl)-5-cyano-4,7-dihydro-2H-pyrazolo[3,4-b]pyridine 2 Hydrochloride] | 9.21 | 
5 | CN1C[C@@H]2CC[C@H]1[C@H](C1=C(C#N)C(c3cccc(C#N)c3Br)c3c[nH]nc3N1)C2 (stereo partly drawn) [Example 1148, 4-(2-Bromo-3-cyanophenyl)-5-cyano-4,7-dihydro-6-(exo-2-methyl-2-azabicyclo[2,2,2]octan-6-yl)-2H-pyrazolo[3,4-b]pyridine] | 8.49 | 
6 | CNC(C)C1=C(C#N)C(c2cccc(C#N)c2Br)c2c[nH]nc2N1 (stereo not drawn) [Example 1155, 4-(2-Bromo-3-cyanophenyl)-5-cyano-4,7-dihydro-6-(1-(methylamino)ethyl)-2H-pyrazolo[3,4-b]pyridine 2 Hydrochloride] | 8.66 | 
7 | CCCC1=C(c2nnc(C)o2)C(c2cccc(C#N)c2Br)c2c[nH]nc2N1 (stereo not drawn) [Example 1158, 4-(2-Bromo-3-cyanophenyl)-4,7-dihydro-5-(5-methyl-1,3,4-oxadiazol-2-yl)-6-propyl-2H-pyrazolo[3,4-b]pyridine] | 9.19 | 

Source: patent publication US6977262B2, “Dihydropyrazolopyridine compounds and pharmaceutical use thereof” (Mitsubishi Pharma Corporation, priority 2001, dated 2005)
